The values below come from PMC10618793, “Investigating cannabinoids as P2X purinoreceptor 4 ligands by using surface plasmon resonance and computational docking” (Heliyon, 2023).

“And” between values parts separate entries of the source, which are not always exact repeats. Identical values can stand only once. “Also recorded” adds a separate entry of the source. Like-named read-outs stand apart in the source and are kept apart here.

Experiment [1] concerns the target T1, P2X4 receptor (Homo sapiens, UniProt Q99571).
T1 construct: His tag (N); purchased MyBioSource, Inc (San Diego, CA, USA)
T1 sequence (Q99571 77-338): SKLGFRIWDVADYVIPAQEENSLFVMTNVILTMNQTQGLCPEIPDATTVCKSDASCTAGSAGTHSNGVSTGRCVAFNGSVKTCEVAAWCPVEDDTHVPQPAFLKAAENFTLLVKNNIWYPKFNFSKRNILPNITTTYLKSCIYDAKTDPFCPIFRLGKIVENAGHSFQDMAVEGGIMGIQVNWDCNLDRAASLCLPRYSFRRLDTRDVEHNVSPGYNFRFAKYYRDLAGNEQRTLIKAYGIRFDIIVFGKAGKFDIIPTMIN
Description: Surface plasmon resonance binding screening assay. The conditions noted are these: for Kd / koff / kon: SPR Biacore T200, P2X4 immobilized on CM5 chip, 1:1 binding model, n.d. = not detectable; for Kd / koff / kon / binding affinity with P2X4 (in words): 0.4-300 μM; for koff: read-out: Koff (dissociation rate); for kon: read-out: Kon (association rate); for binding affinity with P2X4 (in words) / RU (Response Units) values compared with theoretical Rmax: SPR screening; for RU (Response Units) values compared with theoretical Rmax: attributed to matrix binding effects; for association/dissociation phase with P2X4 (sensorgram, in words): SPR screening sensorgrams, Fig. 3. On the technique in general: In SPR one partner is held on a chip, and binding of the other changes the refractive index at the surface.

In experiment [2] the test system is human P2X4. The conditions noted are these: HEK293 cells expressing human P2X4; cited from earlier work.
Experiment [3] addresses T1, P2X4 receptor. The experiment can be described thus: Surface plasmon resonance competitive binding assay. The settings on record: for Response Unit (RU): 5-BDBD alone, 1:1 combination, 5 or 1 μM; for experimental binding response unit (RU): validation BX430 vs 5-BDBD, single binders at 1 μM and 1:1 combination, Fig. 4B; for type of binding on P2X4 relative to 5-BDBD: experimental 1:1 combination RU compared with theoretical RU values. As to the method: Recombinant human P2X4 (500 μg/mL stock solution in Dnase free water) was diluted to 40 μg/mL in sodium acetate 4.0. The protein was immobilized on a CM5 chip based on an amine coupling method as previously described with minor modification. Briefly, the immobilization method involved five phases. First, a stable baseline was established, and a response was observed. […] Both binding association and dissociation were identified as ethanolamine hydrochloride (1 M; pH 8.5) deactivated unreacted NHS-esters and removed electrostatically bound ligands with a contact time of 420 s and a flow rate of 10 μL/min. Completion of all five phases indicated successful immobilization of the P2X4 protein on the SPR sensor chip.
A competitive SPR binding assay was designed to narrow down the cannabinoids’ binding site on P2X4. […] Both compounds were dissolved in DMSO at 10 mM and diluted to 10 μM in PBS (20 mM). […] Subsequently, they were diluted to a working concentration of 10 μM using PBS (20 mM) as the diluent. For individual runs, each antagonist was further diluted with the running buffer, composed of PBS (20 mM) with 3 % DMSO, resulting in a final concentration of 1 μM. To evaluate the interaction of both antagonists simultaneously, a 1:1 combination ratio was employed. Glycine, at a pH of 2.5 was utilized as the regeneration buffer. Additionally, solvent correction cycles were incorporated, consisting of eight correction points ranging from 2.5 % to 3.8 % of DMSO content, ensuring accurate data interpretation during the experimental procedure.
Compounds were initially prepared at a concentration of 10 mM in DMSO and subsequently diluted in PBS (20 mM) to either 10 or 2 μM, depending on the binding response unit (RU) observed during the binding screening assays. For individual evaluations, compounds were diluted in a 1:1 combination ratio with the running buffer, PBS (20 mM) + 3 % DMSO, to either 5 or 1 μM.
These mixtures were subsequently diluted to either 5 or 1 μM using the running buffer.
The theoretical non-competitive value was calculated as the sum of the experimental RU values of the cannabinoid and BX430, or the cannabinoid and 5-BDBD. The combined experimental RU value was compared to both the competitive and non-competitive theoretical RU values to determine the type of binding.

Experiment [4] has as its system P2X4. Further details: method as in PMID 28588493. The settings on record: selective non-competitive (allosteric) antagonist of P2X4; cited from earlier work.
Setting [5] is: KD (equilibrium dissociation constant).
[6] abbreviates: read-out: KD (equilibrium dissociation constant).

In general, Kd refers to the free concentration of one partner at which half of the binding sites on the other are occupied at equilibrium, for simple one-to-one binding. By koff is commonly meant the first-order rate constant of dissociation. For orientation: kon means the second-order rate constant of association. On to `C=C(C)[C@@H]1CCC(C)=C[C@H]1c1c(O)cc(CCC)cc1O` [CBDV, cannabidivarin], for which, in experiment [1] (setting [5]), the Kd stood at 9.9 µM. Moreover, the equilibrium dissociation constant (Kd) in experiment [1] (setting [6]) was 9.91 µM. In experiment [1], the koff turned out to be 0.12 s⁻¹ and the kon was 12100 M⁻¹ s⁻¹.

Take `CCCCCCCc1cc(O)c2c(c1)OC(C)(C)C1CCC(C)=CC21` (stereo not drawn) [THCP, Δ^9-tetrahydrocannabiphorol]: the “binding affinity with P2X4 (in words)” value in experiment [1] is listed as “did not demonstrate any binding affinity”.

Turning to `CCCCc1cc(O)c2c(c1)OC(C)(C)C1CCC(C)=CC21` (stereo not drawn) [THCB, Δ^9-tetrahydrocannabibutol], in experiment [1], the “binding affinity with P2X4 (in words)” value was “did not demonstrate any binding affinity”.

Take `CCCCCc1cc(O)c(C/C=C(\C)CCC=C(C)C)c(OC)c1` [CBGM, cannabigerol monomethyl ether]: in experiment [1], the “binding affinity with P2X4 (in words)” value is recorded as “did not demonstrate any binding affinity”.

Regarding `C=C(C)[C@@H]1CCC(C)=C[C@H]1c1c(O)cc(CCCCC)c(C(=O)O)c1O` [CBDA, cannabidiolic acid], the “binding affinity with P2X4 (in words)” value in experiment [1] is reported as “did not demonstrate any binding affinity”.

With `CCCc1cc(O)cc(O)c1C(=O)O` [Varinolic acid, varinolic acid], the “binding affinity with P2X4 (in words)” value in experiment [1] is recorded as “did not demonstrate any binding affinity”.

On to `CCCc1cc(O)c2c(c1)OC(C)(CCC=C(C)C)C=C2` (stereo not drawn) [CBCV, cannabichromevarin], for which the “binding affinity with P2X4 (in words)” value in experiment [1] is “did not demonstrate any binding affinity”.

Take `CCCCCc1cc(O)c2c(c1)OC(C)(C)c1ccc(C)cc1-2` [CBN, cannabinol]: the “binding affinity with P2X4 (in words)” value in experiment [1] was “did not demonstrate any binding affinity”.

For `CCCCCc1cc(O)c(C/C=C(\C)CCC=C(C)C)c(O)c1` [CBG, cannabigerol], the “binding affinity with P2X4 (in words)” value in experiment [1] was “did not demonstrate any binding affinity”.

Turning to `C=C(C)[C@@H]1C[C@H](O)C(C)=C[C@H]1c1c(O)cc(CCCCC)cc1O` [6α–OH–CBD, 6α-hydroxy cannabidiol], in experiment [1] (setting [5]), the Kd was 340 µM and > 10 µM. Moreover, the equilibrium dissociation constant (Kd) in experiment [1] (setting [6]) worked out at 337 µM. In experiment [1], the dissociation rate constant (koff) stood at 0.427 s⁻¹, the kon was determined as 1270 M⁻¹ s⁻¹ and the “RU (Response Units) values compared with theoretical Rmax” value (shortened to “RU … compared with theoretical Rmax”) is on record as “higher than the theoretical Rmax”.

By IC50 is commonly meant the concentration needed to halve the response being measured. On to `O=C1CN=C(c2cccc(Br)c2)c2oc3ccccc3c2N1` [5-BDBD, reference compound], for which, in experiment [2], the IC50 is […]. Moreover, the “Response Unit (RU)” value in experiment [3] (Fig. 6A: CBD alone) stood at 5.8 RU; in experiment [3] (Fig. 6E: CBV alone) it was 6.4 RU. For the same molecule, in experiment [3], the “experimental binding response unit (RU)” value worked out at 34.9 RU.

Turning to `C=C(C)c1ccc(C)cc1-c1c(O)cc(CCCCC)cc1O` [CBND, cannabinodiol], the affinity in experiment [1] (setting [5]), expressed as Kd, was 84 µM. For the same molecule, the Kd in experiment [1] (setting [6]) amounted to 84.2 µM. In experiment [1], the koff stood at 0.128 s⁻¹, the on-rate constant (kon) is 1520 M⁻¹ s⁻¹ and the “RU … compared with theoretical Rmax” value is “higher than the theoretical Rmax”.

Take `CCCCCc1cc(O)c2c(c1)OC1(C)CCC3C1C2C3(C)C` (stereo not drawn) [CBL, cannabicyclol]: the “binding affinity with P2X4 (in words)” value in experiment [1] is on record as “did not demonstrate any binding affinity”.

Turning to `CC(C)=CCC/C(C)=C/Cc1c(O)cc(C)c(C(=O)O)c1O` [CBGOA, cannabigerorcinic acid], in experiment [1] (setting [5]), the dissociation constant Kd was 140 µM and > 10 µM. Moreover, in experiment [1] (setting [6]), the equilibrium dissociation constant (Kd) was found to be 138 µM. Also, in experiment [1], the koff is 0.375 s⁻¹, the kon was 2720 M⁻¹ s⁻¹ and the “RU … compared with theoretical Rmax” value is recorded as “higher than the theoretical Rmax”.

`C=C(C)C1CCC(C)=CC1c1c(O)cc(CCCC)cc1O` (stereo not drawn) [CBDB, cannabidibutol]: the “binding affinity with P2X4 (in words)” value in experiment [1] is recorded as “did not demonstrate any binding affinity”.

On to `CCCCCc1cc(O)c(C/C=C(\C)CCC=C(C)C)c(O)c1C(=O)O` [CBGA, cannabigerolic acid], for which the Kd in experiment [1] (setting [5]) is 140 µM and > 10 µM. Further, the Kd in experiment [1] (setting [6]) was 144 µM. In experiment [1], the koff stood at 0.119 s⁻¹; the kon was 824 M⁻¹ s⁻¹; the “association/dissociation phase with P2X4 (sensorgram, in words)” value (“association/dissociation phase with P2X4” below) is “slow association and dissociation phases”.

As to `CCCCCc1cc2c(c(O)c1C(=O)O)[C@@H]1CC(C)=CC[C@H]1C(C)(C)O2` [Δ^8-THCA-A, Δ^8-trans-tetrahydrocannabinolic acid A], the Kd in experiment [1] (setting [5]) was 76 µM and 76.4 µM. For the same molecule, in experiment [1], the off-rate constant (koff) is 0.0812 s⁻¹; the kon stood at 1060 M⁻¹ s⁻¹; the “association/dissociation phase with P2X4” value was “slow association and dissociation phases”; the “RU … compared with theoretical Rmax” value was “higher than the theoretical Rmax”.

Regarding `C=C(C)[C@@H]1CCC(C)=C[C@H]1c1c(O)cc(CCCCC)cc1O` [CBD, cannabidiol], binding in experiment [1] (setting [5]) was put at a Kd of 1 µM. Also, in experiment [1] (setting [6]), the Kd came to 1.04 µM. In experiment [1], the koff stood at 0.02 s⁻¹; the on-rate (kon) was found to be 19200 M⁻¹ s⁻¹; the “association/dissociation phase with P2X4” value is given as “slow dissociation phase”. For the same molecule, in experiment [3] (Fig. 6A: CBD alone), the “Response Unit (RU)” value is 6.9 RU. Moreover, the “type of binding on P2X4 relative to 5-BDBD” value in experiment [3] was “competitive P2X4-binders; also recorded: competitive binding”.

Take `CC(C)c1cc(Br)c(NC(=O)Nc2cccnc2)c(Br)c1` [BX430, reference compound]: the “experimental binding response unit (RU)” value in experiment [3] came out at 22.5 RU. Also, the half-maximal inhibitory concentration (IC50) in experiment [4] was 0.54 µM.

Consider `CCCCCc1cc2c(c(O)c1C(=O)O)[C@@H]1C=C(C)CC[C@H]1C(C)(C)O2` [THCA-A, Δ^9-tetrahydrocannabinolic acid A], for which the affinity in experiment [1] (setting [5]), expressed as Kd, was 117 µM. Also, in experiment [1], the koff is 0.101 s⁻¹; the kon was determined as 866 M⁻¹ s⁻¹; the “association/dissociation phase with P2X4” value was “slow association and dissociation phases”; the “RU … compared with theoretical Rmax” value was “higher than the theoretical Rmax”.

Regarding `CCCc1cc(O)c(C/C=C(\C)CCC=C(C)C)c(O)c1C(=O)O` [CBGVA, cannabigerovarinic acid], the dissociation constant Kd in experiment [1] (setting [6]) was found to be 92 µM. Moreover, in experiment [1], the off-rate constant (koff) was 0.174 s⁻¹; the on-rate constant (kon) was 1890 M⁻¹ s⁻¹; the “association/dissociation phase with P2X4” value was “slow association and dissociation phases”; the “RU … compared with theoretical Rmax” value is reported as “higher than the theoretical Rmax”.

Turning to `C=C(C)[C@@H]1CCC(C)=C[C@H]1c1c(O)cc(CCCCC)c(C(=O)OC)c1O` [CBDAME, cannabidiolic acid methyl ester], the “binding affinity with P2X4 (in words)” value in experiment [1] is on record as “did not demonstrate any binding affinity”.

Turning to `CCCc1cc(O)c(C/C=C(\C)CCC=C(C)C)c(O)c1` [CBGV, cannabigerovarin], the “association/dissociation phase with P2X4” value in experiment [1] is given as “slow dissociation phase”.

Take `CCCCCc1cc(O)c2c(c1)OC(C)(C)C1CCC(CO)=CC21` (stereo not drawn) [11-OH-THC]: the affinity in experiment [1] (setting [5]), expressed as Kd, was 6.31 µM. Further, in experiment [1], the koff stood at 0.0742 s⁻¹ and the kon came out at 11800 M⁻¹ s⁻¹.

Regarding `CCCCCc1cc(O)c2c(c1)OC(C)(CCC=C(C)C)C=C2` (stereo not drawn) [CBC, cannabichromene], in experiment [1], the “binding affinity with P2X4 (in words)” value is on record as “did not demonstrate any binding affinity”.

Turning to `C=C(C)C1CCC(C)=CC1c1c(O)cc(CCCCCCC)cc1O` (stereo not drawn) [CBDP, cannabidiphorol], the “binding affinity with P2X4 (in words)” value in experiment [1] is “did not demonstrate any binding affinity”.

`CCCc1cc(O)c2c(c1)OC(C)(C)c1ccc(C)cc1-2` [CBV, cannabivarin] registered a Kd in experiment [1] (setting [5]) of 16.4 µM. Further, in experiment [1], the off-rate (koff) turned out to be 0.0405 s⁻¹; the on-rate (kon) amounted to 2470 M⁻¹ s⁻¹; the “association/dissociation phase with P2X4” value is “slow dissociation phase”. Besides, the “Response Unit (RU)” value in experiment [3] (Fig. 6E: CBV alone) was 0.9 RU. Also, in experiment [3], the “type of binding on P2X4 relative to 5-BDBD” value is recorded as “competitive P2X4-binders; also recorded: competitive binding”.
